Experimental data reported in patent US9416128B2, “Fused heterocyclic compounds as ion channel modulators” (Gilead Sciences, Inc., priority 2013, dated 2016).

How the values were obtained:
hNaV1.2 (SCN2A) = target: T1, hNaV1.2 (SCN2A) (Homo sapiens, UniProt Q99250); assay: Use-dependent inhibition of the CNS NaV1.2 sodium channel; format: cell-based; conditions: % inhibition; for inhibition at 1 µM / inhibition at 10 µM: HEK-293, 25 Hz; for inhibition at 1 µM: read-out: Nav1.2 UDB 25 Hz 1 uM; for inhibition at 10 µM: read-out: Nav1.2 UDB 25 Hz 10 uM
T1 construct: expressed in transfected cells
T1 sequence (Q99250 whole entry): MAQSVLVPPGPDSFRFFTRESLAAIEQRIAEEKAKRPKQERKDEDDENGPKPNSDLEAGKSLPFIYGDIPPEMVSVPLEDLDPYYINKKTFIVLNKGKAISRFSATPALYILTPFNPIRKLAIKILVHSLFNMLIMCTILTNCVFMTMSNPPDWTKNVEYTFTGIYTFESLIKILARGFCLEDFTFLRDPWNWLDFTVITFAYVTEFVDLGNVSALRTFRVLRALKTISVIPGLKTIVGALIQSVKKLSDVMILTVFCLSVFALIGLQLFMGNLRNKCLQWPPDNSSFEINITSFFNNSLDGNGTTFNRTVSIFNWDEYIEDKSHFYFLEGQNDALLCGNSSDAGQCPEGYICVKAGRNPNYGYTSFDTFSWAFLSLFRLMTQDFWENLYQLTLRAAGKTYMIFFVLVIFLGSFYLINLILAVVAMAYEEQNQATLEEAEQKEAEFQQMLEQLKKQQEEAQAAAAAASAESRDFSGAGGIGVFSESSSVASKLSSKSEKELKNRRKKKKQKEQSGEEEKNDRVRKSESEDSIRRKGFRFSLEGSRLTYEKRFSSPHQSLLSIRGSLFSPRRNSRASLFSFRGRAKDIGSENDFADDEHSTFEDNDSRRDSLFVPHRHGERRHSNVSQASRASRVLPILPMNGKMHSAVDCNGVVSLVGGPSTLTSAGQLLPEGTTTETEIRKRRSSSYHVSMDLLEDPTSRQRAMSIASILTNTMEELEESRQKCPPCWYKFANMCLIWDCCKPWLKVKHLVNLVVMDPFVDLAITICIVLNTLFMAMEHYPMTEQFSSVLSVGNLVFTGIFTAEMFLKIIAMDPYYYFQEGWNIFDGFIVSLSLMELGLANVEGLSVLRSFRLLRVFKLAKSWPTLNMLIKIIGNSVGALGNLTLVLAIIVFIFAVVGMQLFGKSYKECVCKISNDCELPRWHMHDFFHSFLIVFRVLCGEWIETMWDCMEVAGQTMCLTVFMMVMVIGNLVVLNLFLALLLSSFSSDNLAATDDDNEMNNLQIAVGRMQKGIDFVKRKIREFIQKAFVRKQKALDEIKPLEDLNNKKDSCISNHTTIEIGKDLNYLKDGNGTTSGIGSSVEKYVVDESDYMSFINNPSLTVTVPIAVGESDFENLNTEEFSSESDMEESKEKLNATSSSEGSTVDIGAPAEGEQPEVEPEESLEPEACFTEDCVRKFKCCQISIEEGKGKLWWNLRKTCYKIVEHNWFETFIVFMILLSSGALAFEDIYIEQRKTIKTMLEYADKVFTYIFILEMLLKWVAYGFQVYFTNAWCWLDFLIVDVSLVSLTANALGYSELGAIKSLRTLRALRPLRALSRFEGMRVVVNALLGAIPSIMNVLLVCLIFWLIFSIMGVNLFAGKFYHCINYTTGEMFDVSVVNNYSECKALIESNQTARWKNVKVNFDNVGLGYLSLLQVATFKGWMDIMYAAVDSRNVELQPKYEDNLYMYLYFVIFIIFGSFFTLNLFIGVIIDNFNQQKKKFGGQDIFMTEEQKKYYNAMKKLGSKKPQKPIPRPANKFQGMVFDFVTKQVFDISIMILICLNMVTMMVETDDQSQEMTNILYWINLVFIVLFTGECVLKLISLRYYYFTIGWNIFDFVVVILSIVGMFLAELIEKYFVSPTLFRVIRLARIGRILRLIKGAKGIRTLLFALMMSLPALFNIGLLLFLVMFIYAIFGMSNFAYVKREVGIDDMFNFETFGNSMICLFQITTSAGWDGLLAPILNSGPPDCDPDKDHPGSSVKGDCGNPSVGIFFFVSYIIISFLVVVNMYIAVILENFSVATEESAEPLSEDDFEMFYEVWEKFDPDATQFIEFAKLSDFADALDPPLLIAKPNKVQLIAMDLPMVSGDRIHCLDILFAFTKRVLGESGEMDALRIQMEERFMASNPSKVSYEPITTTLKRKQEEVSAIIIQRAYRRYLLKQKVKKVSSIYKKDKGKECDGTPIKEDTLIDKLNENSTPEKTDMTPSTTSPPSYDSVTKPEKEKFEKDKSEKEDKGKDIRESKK
T1 sequence (Q07699 19-218 partner): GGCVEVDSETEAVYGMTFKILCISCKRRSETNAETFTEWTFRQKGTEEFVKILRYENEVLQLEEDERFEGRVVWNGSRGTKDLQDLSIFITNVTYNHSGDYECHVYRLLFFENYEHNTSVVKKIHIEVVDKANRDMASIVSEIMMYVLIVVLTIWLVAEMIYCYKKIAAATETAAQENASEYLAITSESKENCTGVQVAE
T1 sequence (O60939 30-215 partner): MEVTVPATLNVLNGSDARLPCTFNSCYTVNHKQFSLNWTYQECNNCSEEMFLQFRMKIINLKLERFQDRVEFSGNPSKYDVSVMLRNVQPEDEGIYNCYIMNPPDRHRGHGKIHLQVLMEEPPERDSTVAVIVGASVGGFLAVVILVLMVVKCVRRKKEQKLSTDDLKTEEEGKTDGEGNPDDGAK
Protocol: HEK-293 cells stably expressing wild-type (WT) hNaV1.2 (SCN2A NCBI # NM_021007.2, SCN1B NCBI # NM_001037.4, SCN2B NCBI # NM_004588.2) were used to record INa. Cells are maintained with standard tissue culture procedures and stable channel expression is maintained with 800 ug/mL G418 and 3 ug/mL Puromycin in the culture medium. Unless otherwise noted, all reagents are purchased from Sigma-Aldrich (St Louis, Mo., U.S.A.).
Assays measuring Use-Dependent Block (UDB) of NaV1.2 are performed on an automated electrophysiology platform, QPatch 16X or QPatch HT (Sophion Bioscience, Copenhagen, Denmark), using the whole cell patch clamp technique to measure currents through the cell membrane. Series resistance compensation is set to 100% and series resistance and whole-cell compensation are performed automatically. Currents stored in the Sophion Bioscience Oracle database (Sophion Bioscience, Copenhagen, Denmark). Analysis is performed using QPatch Assay software and data are compiled in Excel 2010 (Microsoft, Seattle, Wash., U.S.A.). The internal (pipette) solution consists of (in mM) 105 CsF, 10 NaF, 20 CsCl, 2 EGTA, 10 HEPES, 10 Dextrose with a pH of 7.35 and osmolarity of 300 mOsmol/kg. The external (bath) solution contains in (mM): 145 NaCl, 4 KCl, 1.8 CaCl2, 1 MgCl2, 10 dextrose, 10 HEPES, with a pH of 7.35 and osmolarity of 310 mOsmol/kg. Experiments are carried out at 23-25° C.
(§1) Compound stocks are routinely made by the Gilead Sample Bank in vials to 10 mM in dimethyl sulfoxide (DMSO). In some cases, when compounds are not soluble in DMSO, they are made in 100% ethanol. Stocks are sonicated as necessary. […]
Cells are allowed to stabilize for 10 min after establishment of the whole-cell configuration before current is measured. The test compound is applied 2 times at 60 second intervals. After the second compound addition, a 200 second wait period was imposed to allow for equilibration. Leak currents are subtracted by using an online P/4 procedure and all currents are low-pass Bessel filtered at 5 kHz and digitized at […].
Results are presented as mean percentage inhibition.
Use-dependent block of NaV1.2 peak current is measured during pulse number 20 of a voltage pulse train (0 mV, 20 ms, 20 pulses, 25 Hz) from a holding potential of −120 mV.
Currents are normalized to the peak current recorded in response to the first pulse in each frequency train. The voltage protocol for UDB was performed in the absence and presence of compound and percentage inhibition was calculated with respect to the compound free condition.
Data analysis is performed using QPatch Assay Software 4.0, and Excel 2002 (Microsoft, Seattle, Wash., U.S.A.).

hNaV1.1 (SCN1A) = hNaV1.1 (SCN1A) (Homo sapiens, UniProt P35498); assay: Use-dependent inhibition of the CNS NaV1.1 sodium channel; format: cell-based; conditions: % inhibition; for inhibition at 1 µM / inhibition at 10 µM: 25 Hz; for inhibition at 1 µM: read-out: Nav1.1 UDB 25 Hz 1 uM; for inhibition at 10 µM: read-out: Nav1.1 UDB 25 Hz 10 uM
Protocol: HEK-293 cells stably expressing wild-type (WT) hNaV1.1 (SCN1A, NCBI# AB09354) were obtained from Millipore (Cat. # CYL3009) were used to record INa. Cells are maintained with standard tissue culture procedures and stable channel expression is maintained with 400 ug/mL G418 in the culture medium. Unless otherwise noted, all reagents are purchased from Sigma-Aldrich (St Louis, Mo., U.S.A.).
Assays measuring Use-Dependent Block (UDB) of NaV1.2 are performed on an automated electrophysiology platform, QPatch 16X or QPatch HT (Sophion Bioscience, Copenhagen, Denmark), using the whole cell patch clamp technique to measure currents through the cell membrane. Series resistance compensation is set to 100% and series resistance and whole-cell compensation are performed automatically. Currents stored in the Sophion Bioscience Oracle database (Sophion Bioscience, Copenhagen, Denmark). Analysis is performed using QPatch Assay software and data are compiled in Excel 2010 (Microsoft, Seattle, Wash., U.S.A.).
The internal (pipette) solution consists of (in mM) 105 CsF, 10 NaF, 20 CsCl, 2 EGTA, 10 HEPES, 10 Dextrose with a pH of 7.35 and osmolarity of 300 mOsmol/kg. The external (bath) solution contains in (mM): 145 NaCl, 4 KCl, 1.8 CaCl2, 1 MgCl2, 10 dextrose, 10 HEPES, with a pH of 7.35 and osmolarity of 310 mOsmol/kg. Experiments are carried out at 23-25° C.
as §1
Cells are allowed to stabilize for 10 min after establishment of the whole-cell configuration before current is measured. The test compound is applied 2 times at 60 second intervals. After the second compound addition, a 200 second wait period was imposed to allow for equilibration.
Leak currents are subtracted by using an online P/4 procedure and all currents are low-pass Bessel filtered at 5 kHz and digitized at […].
Use-dependent block of NaV1.2 peak current is measured during pulse number 20 of a voltage pulse train (0 mV, 20 ms, 20 pulses, 25 Hz) from a holding potential of −120 mV. Currents are normalized to the peak current recorded in response to the first pulse in each frequency train. The voltage protocol for UDB was performed in the absence and presence of compound and percentage inhibition was calculated with respect to the compound free condition. Results are presented as mean percentage inhibition and data analysis is performed using QPatch Assay Software 4.0, and Excel 2002 (Microsoft, Seattle, Wash., U.S.A.).

Compound	inhibition at 1 µM (hNaV1.2 (SCN2A); use-dependent block at 1 uM)	inhibition at 10 µM (hNaV1.2 (SCN2A); use-dependent block at 10 uM)	inhibition at 1 µM (hNaV1.1 (SCN1A); use-dependent block at 1 uM)	inhibition at 10 µM (hNaV1.1 (SCN1A); use-dependent block at 10 uM)	Nav1.2 UDB 25 Hz 1 uM (hNaV1.2 (SCN2A); use-dependent block at 1 uM)	Nav1.2 UDB 25 Hz 10 uM (hNaV1.2 (SCN2A); use-dependent block at 10 uM)	Nav1.1 UDB 25 Hz 1 uM (hNaV1.1 (SCN1A); use-dependent block at 1 uM)	Nav1.1 UDB 25 Hz 10 uM (hNaV1.1 (SCN1A); use-dependent block at 10 uM)
Cc1cnc(CN2Cc3cc(-c4ccc(C(F)(F)F)cc4C)ccc3OC2=O)nc1 [Example 43, 6-(2-methyl-4-(trifluoromethyl)phenyl)-3-((5-methylpyrimidin-2-yl)methyl)-3,4-dihydro-2H-benzo[e][1,3]oxazin-2-one]	< 5%	48.9%	< 5%	51.4%				
CC(C)Oc1cc(C(F)(F)F)ccc1-c1ccc2c(c1)CN(Cc1ncccn1)C(=O)O2 [Example 25, 6-(2-isopropoxy-4-(trifluoromethyl)phenyl)-3-(pyrimidin-2-ylmethyl)-3,4-dihydro-2H-benzo[e][1,3]oxazin-2-one]	29.9%	72.1%	31.7%	75.3%				
COc1cc(C(F)(F)F)ccc1-c1ccc2c(c1)CN(Cc1ncc(C)cn1)C(=O)O2 [Example 42, 6-(2-methoxy-4-(trifluoromethyl)phenyl)-3-((5-methylpyrimidin-2-yl)methyl)-3,4-dihydro-2H-benzo[e][1,3]oxazin-2-one]	13.3%	47.4%	11.5%	47.9%				
Cc1csc(CN2Cc3cc(-c4ccc(OC(F)(F)F)cc4F)ccc3OC2=O)n1 [Example 55, 6-(2-fluoro-4-(trifluoromethoxy)phenyl)-3-((4-methylthiazol-2-yl)methyl)-3,4-dihydro-2H-benzo[e][1,3]oxazin-2-one]	22.6%	61.8%	< 5%	55%				
Cc1ccnc(CN2Cc3cc(-c4ccc(C(F)(F)F)cc4)ccc3OC2=O)n1 [Example 30, 3-((4-methylpyrimidin-2-yl)methyl)-6-(4-(trifluoromethyl)phenyl)-3,4-dihydro-2H-benzo[e][1,3]oxazin-2-one]	47.1%	79.6%	49.7%	87.5%				
COc1cc(OC(F)(F)F)ccc1-c1ccc2c(c1)CN(Cc1cccc(C)n1)C(=O)O2 [Example 46, 6-(2-methoxy-4-(trifluoromethoxy)phenyl)-3-((6-methylpyridin-2-yl)methyl)-3,4-dihydro-2H-benzo[e][1,3]oxazin-2-one]	22.4%	77.2%	19%	78.6%				
Cc1csc(CN2Cc3cc(-c4ccc(Cl)c(F)c4)ccc3OC2=O)n1 [Example 59, 6-(4-chloro-3-fluorophenyl)-3-((4-methylthiazol-2-yl)methyl)-3,4-dihydro-2H-benzo[e][1,3]oxazin-2-one]	< 5%	41.2%	20.7%	39.9%				
Cc1csc(CN2Cc3cc(-c4ccc(OC(F)(F)F)cc4Cl)ccc3OC2=O)n1 [Example 57, 6-(2-chloro-4-(trifluoromethoxy)phenyl)-3-((4-methylthiazol-2-yl)methyl)-3,4-dihydro-2H-benzo[e][1,3]oxazin-2-one]	12.8%	61.5%	< 5%	48.8%				
O=C1Oc2ccc(-c3ccc(C(F)(F)F)cc3)cc2CN1Cc1ccccn1 [Example 24, 3-(pyridin-2-ylmethyl)-6-(4-(trifluoromethyl)phenyl)-3,4-dihydro-2H-benzo[e][1,3]oxazin-2-one]	32.7%	71.4%	44.9%	79.6%				
CCOc1cc(OC(F)(F)F)ccc1-c1ccc2c(c1)CN(Cc1ncccn1)C(=O)O2 [Example 40, 6-(2-ethoxy-4-(trifluoromethoxy)phenyl)-3-(pyrimidin-2-ylmethyl)-3,4-dihydro-2H-benzo[e][1,3]oxazin-2-one]	16.7%	62.5%	22.6%	71.3%				
Cc1cccc(CN2Cc3cc(-c4ccc(OC(F)(F)F)cc4F)ccc3OC2=O)n1 [Example 47, 6-(2-fluoro-4-(trifluoromethoxy)phenyl)-3-((6-methylpyridin-2-yl)methyl)-3,4-dihydro-2H-benzo[e][1,3]oxazin-2-one]	14.1%	55.6%	< 5%	69.2%				
O=C1Oc2ccc(-c3ccc(OC(F)(F)F)cc3)cc2CN1Cc1ccccn1 [Example 20, 3-(pyridin-2-ylmethyl)-6-(4-(trifluoromethoxy)phenyl)-3,4-dihydro-2H-benzo[e][1,3]oxazin-2-one]	30.2%	69.8%	29.1%	82%				
COc1cc(OC(F)(F)F)ccc1-c1ccc2c(c1)CN(Cc1ncccn1)C(=O)O2 [Example 1, 6-(2-methoxy-4-(trifluoromethoxy)phenyl)-3-(pyrimidin-2-ylmethyl)-3,4-dihydro-2H-benzo[e][1,3]oxazin-2-one]					7.9%	37.0%	<5%	34.4%
O=C1Oc2ccc(-c3ccc(Cl)c(F)c3)cc2CN1Cc1ncccn1 [Example 6, 6-(4-chloro-3-fluorophenyl)-3-(pyrimidin-2-ylmethyl)-3,4-dihydro-2H-benzo[e][1,3]oxazin-2-one]			26.7%	65.2%				
CC1c2cc(-c3ccc(OC(F)(F)F)cc3)ccc2OC(=O)N1Cc1ncccn1 (stereo not shown) [Example 48, 4-methyl-3-(pyrimidin-2-ylmethyl)-6-(4-(trifluoromethoxy)phenyl)-3,4-dihydro-2H-benzo[e][1,3]oxazin-2-one]			32.5%	73.3%				
CC1c2cc(-c3cccc(OC(F)(F)F)c3)ccc2OC(=O)N1Cc1ncccn1 (stereo not shown) [Example 50, 4-methyl-3-(pyrimidin-2-ylmethyl)-6-(3-(trifluoromethoxy)phenyl)-3,4-dihydro-2H-benzo[e][1,3]oxazin-2-one]			10.1%	71.2%				
